# Test results: US20260034094A1, “COMPOSITIONS AND METHODS FOR INDUCING FERROPTOSIS” (Kojin Therapeutics, Inc., priority 2022, published 2026)
# Read-outs that look alike come from different tables or passages of the source.
# Legend:
# [1] = biological target: human recombinant GCL (Homo sapiens (Human), UniProt P48506); assay: GCL enzyme profiling assay (ADP-Glo luminescence); assay type: biochemical; settings: read-out: GCL IC50
# Procedure: The GCL enzyme assay was run in 50 mM HEPES, pH 7.5, containing 150 mM NaCl, 30 mM MgCl2, 0.5 mM EDTA, 1 mM DTT, 0.1 mg/mL BSA, and 0.02% or in the present case 0.2% F-127 in a total assay volume of 10 μL or 10 mL. Compound in pure DMSO was stamped in assay plates (Greiner black 384-well) or appropriate containers using a D300e digital dispenser (TECAN) and the final DMSO concentration was normalized to 1%. A 5 mL, or in the present case, 5 μL mixture of human recombinant GCL (final concentration: 5 nM) and ATP (final concentration: 0.6 mM) was added and the solution was incubated at room temperature (22° C.) for 1 h. The GCL enzyme reaction was initiated by addition of a 5 μL mixture of mono g-glutamate or in the present example, monosodium glutamate (final concentration: 1 mM) and a-aminobutyrate or α-aminobutyrate (final concentration: 1.2 mM). The reaction was stopped after 1 h or in the present case, 2 h by addition of 5 mL, or in the present case, 5 μL ADP GLO Reagent (Promega). The resulting solution was incubated for 2 h at room temperature. This was then followed by addition of 5 mL, or in the present case, 5 μL ADP GLO Detection. After incubation at room temperature for 30 min, the plates were read on a plate reader (PheraStar) using a luminescence protocol to quantify the GCL enzyme activity from each reaction solution. The data was analyzed using a four-parameter logistic equation to calculate IC50.
# [2] = system: RKN cells; assay: RKN cell profiling assay (cell viability, CellTiter-Glo); assay type: cell-based; settings: read-out: Cell Killing EC50
# Outline: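 Viability read by CellTiter-Glo luminescence after 96 h compound exposure (0.5% DMSO final) of cells plated at 1,000/well in 10% FBS F-12 and allowed 24 h attachment. Four-parameter fits gave EC50; rescue arms used ferrostatin-1, 1.5 μM, present from seeding.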
# [3] = human recombinant GCL 5 nM, 1 h preincubation with ATP
# human recombinant GCL, sequence (P48506 whole entry): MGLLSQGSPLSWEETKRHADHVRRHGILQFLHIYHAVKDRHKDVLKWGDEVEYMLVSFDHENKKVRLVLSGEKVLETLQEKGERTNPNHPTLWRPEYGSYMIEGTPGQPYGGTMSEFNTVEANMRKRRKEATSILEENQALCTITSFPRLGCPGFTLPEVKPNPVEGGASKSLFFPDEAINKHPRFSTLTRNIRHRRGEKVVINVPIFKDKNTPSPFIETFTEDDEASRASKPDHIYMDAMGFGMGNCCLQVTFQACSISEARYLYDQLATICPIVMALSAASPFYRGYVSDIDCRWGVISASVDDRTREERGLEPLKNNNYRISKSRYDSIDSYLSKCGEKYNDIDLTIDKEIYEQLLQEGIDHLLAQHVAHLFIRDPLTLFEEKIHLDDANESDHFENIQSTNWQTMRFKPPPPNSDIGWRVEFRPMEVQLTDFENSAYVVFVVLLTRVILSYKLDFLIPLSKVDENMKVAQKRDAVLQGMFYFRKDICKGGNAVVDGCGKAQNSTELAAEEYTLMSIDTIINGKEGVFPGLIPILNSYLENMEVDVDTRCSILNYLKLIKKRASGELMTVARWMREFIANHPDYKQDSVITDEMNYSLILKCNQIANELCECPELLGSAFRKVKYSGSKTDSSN
Structure (SMILES),"IC50 ([1]; human recombinant GCL, ADP-Glo) [µM]",EC50 ([2]; cell viability) [µM],"IC50 [1, 3] [µM]","EC50 ([2]; 96 h, 96 h exposure) [µM]"
"C[C@@](O)(CCS(=N)(=O)CC[C@H](N)C(=O)O)C(F)(F)F (single isomer, unassigned) [Compound 323]",> 2000,≥ 1000,,
CC(C)(C)CCS(=N)(=O)CC[C@H](N)C(=O)NCc1ccccc1 (stereo partly drawn) [Compound 122],,,> 2000,< 1000
Cc1ccc(C(=O)O)cc1CCS(=N)(=O)CC[C@H](N)C(=O)O (stereo partly drawn) [Compound 41],,,20 to 2000,≥ 1000
N=S(=O)(CCc1ccc(F)c(F)c1)CC[C@H](N)C(=O)O (stereo partly drawn) [Compound 5],,,≤ 20,≥ 1000
"N=S(=O)(CC[C@H](N)C(=O)O)CCC1(O)CC1 (stereo partly drawn) [Compound 135, (2S)-2-amino-4-(2-(1-hydroxycyclopropyl)ethylsulfonimidoyl)butanoic acid]",,,20 to 2000,< 1000
"CC(C)(C)CC[S@](=N)(=O)CC[C@H](N)C(=O)Nc1cccnc1 (single isomer, unassigned) [Compound 103]",,,> 2000,< 1000
CC(C)(C)CCS(=N)(=O)CC[C@H](N)C(=O)NC1COC1 (stereo partly drawn) [Compound 129],,,> 2000,< 1000
N=S(=O)(CC[C@H](N)C(=O)O)CCC1(c2ccc3[nH]nnc3c2)CCC1 (stereo partly drawn) [Compound 395],20 to 2000,< 1000,,
N=S(=O)(CCC1CCCC1)CC[C@H](N)C(=O)O (stereo partly drawn) [Compound 141],,,≤ 20,< 1000
"CCCCOC(=O)[C@@H](N)CCS(=N)(=O)CCC(C)(C)C (stereo partly drawn) [Compound 72, (2S)-butyl 2-amino-4-(3,3-dimethylbutylsulfonimidoyl)butanoate]",,,20 to 2000,< 1000
"N=S(=O)(CCC(c1ccc(-c2ccccc2Cl)cc1)C(F)(F)F)CC[C@H](N)C(=O)O (stereo partly drawn) [Compound 212, (2S)-2-amino-4-(3-(2′-chloro-[1,1′-biphenyl]-4-yl)-4,4,4-trifluorobutylsulfonimidoyl)butanoic acid]",,,≤ 20,< 1000
CCCCOC(=O)[C@@H](N)CCS(=N)(=O)CCC(C)C (stereo partly drawn) [Compound 95],,,20 to 2000,< 1000
N=S(=O)(CC[C@H](N)C(=O)O)CCC(O)(c1cccnc1)C(F)(F)F (stereo partly drawn) [Compound 361],20 to 2000,≥ 1000,,
"CCOC(=O)[C@@H](N)CC[S@@](=N)(=O)CC[C@@](C)(O)C(F)(F)F [Compound 487, ethyl (S)-2-amino-4-((R,3R)-4,4,4-trifluoro-3-hydroxy-3-methylbutylsulfonimidoyl)butanoate]",20 to 2000,< 1000,,
N=S(=O)(CCC(C(=O)O)C(F)(F)F)CC[C@H](N)C(=O)O (stereo partly drawn) [Compound 306],≤ 20,< 1000,,
CC(C)OCCCS(=N)(=O)CC[C@H](N)C(=O)O (stereo partly drawn) [Compound 162],,,20 to 2000,≥ 1000
CC1(CCCS(=N)(=O)CC[C@H](N)C(=O)O)COC1 (stereo partly drawn) [Compound 312],20 to 2000,< 1000,,
N=S(=O)(CC[C@H](N)C(=O)O)CCC1(c2ccccc2)CCC1 (stereo partly drawn) [Compound 62],,,≤ 20,< 1000
N=S(=O)(CC[C@H](N)C(=O)O)CCC(O)(c1ccsn1)C(F)(F)F (stereo partly drawn) [Compound 370],≤ 20,< 1000,,
N=S(=O)(CC[C@H](N)C(=O)O)CCC1(n2ncc(-c3ccccn3)n2)CCC1 (stereo partly drawn) [Compound 418],20 to 2000,≥ 1000,,
N=S(=O)(CC[C@H](N)C(=O)O)CCC(O)(c1ccnc(C(F)(F)F)c1)C(F)(F)F (stereo partly drawn) [Compound 364],20 to 2000,≥ 1000,,
N=S(=O)(CCC(c1ccc(-c2cc(F)cc(F)c2)cc1)C(F)(F)F)CC[C@H](N)C(=O)O (stereo partly drawn) [Compound 222],≤ 20,< 1000,,
N=S(=O)(CC[C@H](N)C(=O)O)CCC(O)(c1ccc(NC(=O)c2ccsc2)cc1)C(F)(F)F (stereo partly drawn) [Compound 446],≤ 20,< 1000,,
N=S(=O)(CC[C@H](N)C(=O)O)CCC(O)(c1ccc(-c2ccc(Cl)cc2Cl)cc1F)C(F)(F)F (stereo partly drawn) [Compound 450],≤ 20,< 1000,,
N=[S@@](=O)(CC[C@H](N)C(=O)O)CC[C@@H](c1ccccc1)C(F)(F)F [Compound 61],,,≤ 20,< 1000
"CCCCS(=N)(=O)CC[C@H](N)C(N)=O (stereo partly drawn) [Compound 105, (2S)-2-amino-4-(butylsulfonimidoyl)butanamide]",,,> 2000,≥ 1000

Structure (SMILES),"IC50 ([1]; human recombinant GCL, ADP-Glo) [µM]",EC50 ([2]; cell viability) [µM],"IC50 [1, 3] [µM]","EC50 ([2]; 96 h, 96 h exposure) [µM]"
N=S(=O)(CCC(c1ccc(-c2ccc(Cl)c(C(F)(F)F)c2)cc1)C(F)(F)F)CC[C@H](N)C(=O)O (stereo partly drawn) [Compound 237],≤ 20,< 1000,,
"N=[S@@](=O)(CC[C@H](N)C(=O)O)CC[C@](O)(c1ccccc1)C(F)(F)F [Compound 348, (S)-2-amino-4-((R,3S)-4,4,4-trifluoro-3-hydroxy-3-phenylbutylsulfonimidoyl)butanoic acid]",≤ 20,< 1000,,
N=S(=O)(CC[C@H](N)C(=O)O)CCC(O)(c1ncccn1)C(F)(F)F (stereo partly drawn) [Compound 363],20 to 2000,< 1000,,
N=S(=O)(CCC(c1ccc(-c2cccc(N)c2)cc1)C(F)(F)F)CC[C@H](N)C(=O)O (stereo partly drawn) [Compound 239],≤ 20,≥ 1000,,
N=S(=O)(CC[C@H](N)C(=O)O)CCN1CCCC1=O (stereo partly drawn) [Compound 145],,,> 2000,≥ 1000
CC(C)(F)CCS(=N)(=O)CC[C@H](N)C(=O)O (stereo partly drawn) [Compound 163],,,20 to 2000,< 1000
CC(C)(CCS(=N)(=O)CC[C@H](N)C(=O)O)c1ccccc1Cl (stereo partly drawn) [Compound 66],,,20 to 2000,≥ 1000
"N=S(=O)(CC[C@H](N)C(=O)O)CCC1(n2nccn2)CCC1 (stereo partly drawn) [Compound 405, (2S)-4-(2-(1-(2H-1,2,3-triazol-2-yl)cyclobutyl)ethylsulfonimidoyl)-2-aminobutanoic acid]",20 to 2000,< 1000,,
COC(=O)C(C)(C)CCS(=N)(=O)CC[C@H](N)C(=O)O (stereo partly drawn) [Compound 167],,,20 to 2000,< 1000
"N=[S@](=O)(CC[C@H](N)C(=O)O)CCC(O)(c1ccccc1)C(F)(F)F (single isomer, unassigned) [Compound 345]",> 2000,≥ 1000,,
"N=S(=O)(CCC(c1ccc(C#Cc2ccccc2)cc1)C(F)(F)F)CC[C@H](N)C(=O)O (stereo partly drawn) [Compound 215, (2S)-2-amino-4-(4,4,4-trifluoro-3-(4-(phenylethynyl)phenyl)butylsulfonimidoyl)butanoic acid]",≤ 20,< 1000,,
N=S(=O)(CC[C@H](N)C(=O)O)CCC(O)(c1ccc(-c2ccc(Cl)cc2Cl)cc1)C(F)(F)F (stereo partly drawn) [Compound 428],≤ 20,< 1000,,
"N=S(=O)(CCCC(F)(F)F)CC[C@H](N)c1ncon1 (stereo partly drawn) [Compound 203, (1S)-1-(1,2,4-oxadiazol-3-yl)-3-(4,4,4-trifluorobutylsulfonimidoyl)propan-1-amine]",,,> 2000,≥ 1000
N=S(=O)(CCCC(F)(F)F)CC[C@H](N)C(=O)OC1CCCCC1 (stereo partly drawn) [Compound 80],,,20 to 2000,< 1000
CC(C)(C)CCS(=N)(=O)CC[C@H](N)C(=O)NC1CC1 (stereo partly drawn) [Compound 113],,,20 to 2000,< 1000
CCOc1cccc(-c2ccc(C(O)(CCS(=N)(=O)CC[C@H](N)C(=O)O)C(F)(F)F)cc2)c1 (stereo partly drawn) [Compound 451],≤ 20,< 1000,,
Cc1cc(Cl)ccc1-c1ccc(C(O)(CCS(=N)(=O)CC[C@H](N)C(=O)O)C(F)(F)F)nc1 (stereo partly drawn) [Compound 478],≤ 20,< 1000,,
N[C@@H](CCS(=O)(=O)CCC(O)(c1ccon1)C(F)(F)F)C(=O)O (stereo partly drawn) [Compound 369],20 to 2000,≥ 1000,,
"N=S(=O)(CC[C@H](N)C(=O)O)CCC(O)(c1ccc(-c2ccc(Cl)cc2Cl)cn1)C(F)(F)F (single isomer, unassigned) [Compound 464]",20 to 2000,≥ 1000,,
COC(=O)C(CCS(=N)(=O)CC[C@H](N)C(=O)O)C(F)(F)F (stereo partly drawn) [Compound 305],≤ 20,≥ 1000,,
COCC(CCS(=N)(=O)CC[C@H](N)C(=O)O)C(F)(F)F (stereo partly drawn) [Compound 319],20 to 2000,< 1000,,
N=S(=O)(CC[C@H](N)C(=O)O)CCC1(n2ncc(-c3ccccc3)n2)CCC1 (stereo partly drawn) [Compound 420],≤ 20,≥ 1000,,
CCCCOC(=O)[C@@H](N)CCS(=N)(=O)CCc1ccccc1Cl (stereo partly drawn) [Compound 91],,,20 to 2000,< 1000
"N=S(=O)(CCC(Cc1ccccc1)C(F)(F)F)CC[C@H](N)C(=O)O (stereo partly drawn) [Compound 292, (2S)-2-amino-4-(3-benzyl-4,4,4-trifluorobutylsulfonimidoyl)butanoic acid]",≤ 20,≥ 1000,,
Cc1ccc(CCS(=N)(=O)CC[C@H](N)C(=O)O)c(Cl)c1 (stereo partly drawn) [Compound 43],,,≤ 20,≥ 1000
